Results: patent US20240216359A1, “TREATMENT OF NEUROLOGICAL DISORDERS” (GMP BIOTECHNOLOGY LIMITED, priority 2021, published 2024)
Where a name gives a salt, the structure may show the parent alone. Read-outs that look alike come from different tables or passages of the source.

Assays:
[1] = cited from earlier work
[2] = adverse event rate, comparator; cited from earlier work
[3] = 25° C.; cited from earlier work
[4] = Pilot double-blind crossover study in subjects with erectile dysfunction principally of psychogenic origin; format: in vivo, human
Excerpt: The primary efficacy parameter was each subject's assessment of the quality of the erection (graded on a 4-point scale). Secondary endpoints included frequency of erection, time from dosing to erection, duration of erection, and efficacy index (EI) for subjects achieving erections. Safety was primarily assessed via adverse events but cardiovascular effects were also investigated by monitoring blood pressure, heart rates, and percent oxygen saturation, prior to and following dosing. The integrity of the nasal mucosa of both nostrils was also evaluated prior to dosing, in the event of nasal symptoms, and at the end of each treatment visit.
Subjects made a total of six visits to the site, an initial screening and qualification visit, three treatment visits in Part 1, and two treatment visits in Part 2. Eligible subjects were randomized to a treatment sequence for Part I after the initial screening visit. Approximately 2 months later, subjects were randomized to a treatment sequence for Part 2.
At each treatment visit, a single dose of study treatment was administered. Efficacy was measured by means of ED questionnaires, which were completed by each subject. Following dosing, all subjects viewed sexually explicit videotapes and magazines for approximately 60 minutes. At the end of this period, the questionnaires were completed and patients were asked to rate the quality of the erection using a 4-point scale. The primary efficacy variable was the subject's global rating of erection, measured on a scale of 1 to 4: 1=increase in size but not hard; 2=hard, but not hard enough for vaginal penetration; 3=hard enough for vaginal penetration (but not completely hard); 4=completely hard.
Safety was measured by monitoring the subjects' blood pressure, heart rate and percent oxygen saturation (by pulse oximetry) before and after dosing (approximately 90 minutes after dosing commenced). In addition, the integrity of the subject's nasal mucosa was assessed prior to, and at the end of treatment. Information on adverse events was collected throughout the period of the study.
Drugs, Doses, and Regimens: At each treatment visit, subjects received one dose of study treatment.

CN1CCc2cccc3c2[C@H]1Cc1ccc(O)c(O)c1-3 [Apomorphine Hydrochloride]
volume of water in which one gram dissolves ([1]; water at 80° C.): about 20 ml | volume of water in which one gram dissolves ([1]; water): 50 mL

CN1CC(=O)N2[C@H](c3ccc4c(c3)OCO4)c3[nH]c4ccccc4c3C[C@@H]2C1=O [Cialis]
Dizziness [2]: 6.2% | Dyspepsia [2]: 7.7% | Flushing [2]: 4.2% | Headache [2]: 13.9%

O=C(O)CC(O)(CC(=O)O)C(=O)O [Citric Acid]
pKa1 [3]: 3.128 | pKa2 [3]: 4.761 | pKa3 [3]: 6.396

CCCc1nn(C)c2c(=O)[nH]c(-c3cc(S(=O)(=O)N4CCN(C)CC4)ccc3OCC)nc12 [Viagra]
difference in effectiveness in initiating erections between treatments and placebo ([4]; apomorphine HCl 0.25, 0.50, 1.0 mg, Viagra 50 mg): no statistically significant difference | serious adverse events ([4]; human, in vivo): no serious adverse events | subjects who achieved a satisfactory erection (as reported by the subject) ([4]; single dose): around 30% | efficacy by Global Self Assessment Scores (grade 3 or 4) ([4]; single dose, apomorphine 0.25-1.0 mg intranasal, Viagra 50 mg): 67%
